Results from paper PMC6429262, “Design and Synthesis of Novel Anti-Proliferative Emodin Derivatives and Studies on their Cell Cycle Arrest, Apoptosis Pathway and Migration” (Molecules, 2019).

Assays:
[1] = tested on: HepG2 cells; experiment: CellTiter-Glo Luminescent Cell Viability Assay, HepG2; type: cell-based, human; details: for IC50: 48 h, mean of three independent experiments
Experimental: The in vitro anti-proliferative activities of all the novel synthesized compounds were evaluated against HepG2 cells and MCF-7 cells by CellTiter-Glo® Luminescent Cell Viability Assay, using paclitaxel (a clinically used drug) as a positive control. Emodin (1) and compound 2 were also included for comparison.
HepG2 cells and MCF-7 cells were purchased from American Type Culture Collection (ATCC, Manassas, VA, USA). Cells were cultured in T75 flask (430641, Corning, New York, NY, USA), supplemented with high-glucose DMEM medium (Dulbecco’s modified Eagle’s medium, 11965-092, Gibco, New York, NY, USA) containing 10% Fetal bovine serum (FBS) and 1% penicillin (100 units/mL)-streptomycin (100 µg/mL) in a humidified incubator at 37 °C under 5% CO2 and 95% relative humidity (RH) atmosphere. The cells were harvested for metabolomics experiments using cell scrapers.
HepG2 cells and MCF-7 cells in 40 µL DMEM supplemented with 10% FBS were seeded at a density of 500 cells/well in 384-well cell culture plate (3570, Corning), respectively. After 24 h, the medium was substituted with fresh medium containing various sample solutions in DMSO (0.5%, v/v) at a dose range of 0.14–100 µM with 3-fold serial dilutions, and cells were cultured for another 48 h. Cells were cultured in medium without samples but 0.5% DMSO served as a control. All measurements were determined in triplicate for each treatment. After the sample treatment for 48 h, 20 µL CellTiter-Glo (G7573, Promega, Fitchburg, WI, USA) was added to each well containing cells and the contents were mixed for 2 min on an orbital shaker to induce cell lysis. The plates were then incubated at room temperature for 20 min to stabilize the luminescent signal. The luminescence was recorded on an Envision 2014 (Perkin Elmer, Waltham, MA, UAS). The IC50 values represented the samples’ concentrations required to inhibit 50% of cell proliferation and were calculated from a calibration curve by linear regression using GraphPad Prism 7.0 software (GraphPad Software, San Diego, CA, USA).

[2] = tested on: caspase-3; experiment: Western blot, cleaved caspase-3; type: cell-based, human; details: 48 h
Experimental: Total cell lysates from cultured HepG2 cells treated with different concentrations of compound 7a for 48 h were obtained by lysing the cells in ice-cold RIPA buffer (1 PBS, 1% NP-40, 0.5% sodium deoxycholate and 0.1% SDS) containing […] PMSF, 5 mg/mL aprotinin, 5 mg/mL leupeptin, 5 mg/mL pepstatin and […] NaF. After centrifugation at 12,000 rpm for 10 min, the protein in the supernatant was quantified by the Bradford method (BIO-RAD, Hercules, CA, USA) using a Multimode Varioscan instrument (Thermo Fischer Scientific, Waltham, MA, USA). Twenty micrograms of protein per lane was applied in 12% SDS polyacrylamide gel. After electrophoresis, the protein was transferred to a polyvinylidine difluoride membrane (Amersham Biosciences, Marlborough, MA, USA). The membrane was blocked at room temperature for 2 h in TBST containing 5% blocking powder (Santa Cruz, Dallas, TX, USA). The membrane was washed with TBST for 5 min, and the primary antibody was added and incubated at 4 °C overnight (O/N). Bax (5023, CST, Danvers, MA, USA), Bcl-2 (15071, CST), cytochrome c (4280, CST), procaspase-9 (AB138412, Abcam, Cambridge, MA, USA), procaspase-3 (AB32150, Abcam), caspase-3 (66470-2-lg, Proteintech Group, Rosemont, IL, USA) and GAPDH (AB8245, Abcam) antibodies were employed. After three TBST washes, the membrane was incubated with the corresponding horseradish peroxidase-labeled secondary antibody (1:5000) (Santa Cruz) at room temperature for 2 h. Membranes were washed with TBST for 15 min five times and the protein blots were visualized with chemiluminescence reagent (Thermo Fischer Scientific Ltd.). The X-ray films were developed with a developer and fixed with fixer solution. The grey levels were analyzed using ImageQuant LAS 4000 system (GE, Marlborough, MA, USA).

In the case of `Cc1cc(O)c2c(c1)C(=O)c1cc(OCCCOC(=O)[C@@H](C)N)cc(O)c1C2=O.O=C(O)C(F)(F)F` [Compound 7a, (R)-1-(3-(4,5-Dihydroxy-7-methyl-9,10-dioxo-9,10-dihydroanthracen-2-yloxy)propoxy)-1-oxopropan-2-aminium 2,2,2-trifluoroacetate], the IC50 ([1]; HepG2 cells) is reported as 6.47 ± 0.21 µM, the “enhancement of anti-proliferative activity compared to emodin” value ([1]; HepG2 cells, IC50 ratio to parent compound emodin) is reported as 8.8 fold and the IC50 ([1]; Homo sapiens, HepG2, 48 h, HepG2 cells) is reported as 4.95 ± 0.14 µM. For the same molecule, the “Selectivity Index HepG2” value ([1]; IC50 on normal cells (L02)/IC50 on cancer cells (HepG2)) was 2.82, the “Relative expression level, Cleaved Caspase-3” value (from here on “Relative expression level”) ([2]; HepG2, 2.5 μM) was 0.056 ± 0.011 and the “Relative expression level” value ([2]; HepG2, 5 μM) was 0.143 ± 0.013. The “Relative expression level” value ([2]; HepG2, 10 μM) was 0.185 ± 0.026.
